Measured values published in the supplement of paper PMC10307832.

Key:
Assay in all cases: relative viability (nuclei count vs DMSO), 5 days (fraction); higher = more cells survive
[1] = compound: COc1cc2nc(N3CCCN(C)CC3)nc(NC3CCN(Cc4ccccc4)CC3)c2cc1OC + CC1(C)CCC(c2ccc(Cl)cc2)=C(CN2CCN(c3ccc(C(=O)NS(=O)(=O)c4ccc(N[C@H](CCN5CCOCC5)CSc5ccccc5)c(S(=O)(=O)C(F)(F)F)c4)cc3)CC2)C1 [Navitoclax] (partner 0.5 µM)
Method in brief: (§1)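 After 5 days of treatment, lung cancer cells in 1536-well plates were fixed and stained in a single step (final 0.05% Triton X-100, 1% formaldehyde, 1 ug/ml Hoechst) and their nuclei counted on 4× images. Treatment had been applied by pin tool the day after seeding as one drug alone or as a fixed anchor-drug dose with five library-drug doses (not always all listed) in √10 steps. Relative viability is the nuclei count of treated wells divided by that of vehicle wells, and values are medians of duplicate plates.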

[2] = compound: COc1cc2nc(N3CCCN(C)CC3)nc(NC3CCN(Cc4ccccc4)CC3)c2cc1OC + Cc1nc(Nc2ncc(C(=O)Nc3c(C)cccc3Cl)s2)cc(N2CCN(CCO)CC2)n1 [Dasatinib] (partner 0.075 µM)
Method in brief: as §1

AZD6482 + Tozasertib = compound: Cc1cc([C@@H](C)Nc2ccccc2C(=O)O)c2nc(N3CCOCC3)cc(=O)n2c1 [AZD6482] + Cc1cc(Nc2cc(N3CCN(C)CC3)nc(Sc3ccc(NC(=O)C4CC4)cc3)n2)n[nH]1 [Tozasertib] (partner 0.1 µM)
Method in brief: as §1

AZD6482 + Pemetrexed = compound: Cc1cc([C@@H](C)Nc2ccccc2C(=O)O)c2nc(N3CCOCC3)cc(=O)n2c1 [AZD6482] + Nc1nc2[nH]cc(CCc3ccc(C(=O)N[C@@H](CCC(=O)O)C(=O)O)cc3)c2c(=O)[nH]1 [Pemetrexed] (partner 0.2 µM)
Method in brief: as §1

Cell Line	relative viability ([1]; first compound 0.2 µM)	relative viability ([1]; first compound 0.6325 µM)	relative viability ([1]; first compound 2 µM)	relative viability ([1]; first compound 6.325 µM)	relative viability ([2]; first compound 0.2 µM)	relative viability ([2]; first compound 0.6325 µM)	relative viability ([2]; first compound 2 µM)	relative viability ([2]; first compound 6.325 µM)	relative viability (AZD6482 + Tozasertib; first compound 0.08 µM)	relative viability (AZD6482 + Tozasertib; first compound 0.253 µM)	relative viability (AZD6482 + Tozasertib; first compound 0.8 µM)	relative viability (AZD6482 + Tozasertib; first compound 2.53 µM)	relative viability (AZD6482 + Tozasertib; first compound 8 µM)	relative viability (AZD6482 + Pemetrexed; first compound 0.08 µM)	relative viability (AZD6482 + Pemetrexed; first compound 0.253 µM)	relative viability (AZD6482 + Pemetrexed; first compound 0.8 µM)	relative viability (AZD6482 + Pemetrexed; first compound 2.53 µM)	relative viability (AZD6482 + Pemetrexed; first compound 8 µM)
201T	1.2	1.2	1.23	1.15	0.573	0.495	0.549	0.557	0.904	0.889	0.88	0.766	0.875	0.31	0.295	0.27	0.314	0.342
A549	1.24	1.13	1.14	1.06	–	–	–	–	–	–	–	–	–	–	–	–	–	–
A-427	1.04	0.966	1	0.948	0.64	0.707	0.749	0.651	0.219	0.214	0.188	–	0.209	0.92	0.967	0.963	0.686	0.995
ABC-1	–	–	–	–	0.531	0.525	0.568	0.581	0.168	0.158	0.155	0.201	0.216	–	–	–	–	–
BEN	0.0596	0.0723	0.0708	0.0777	0.384	0.389	0.36	0.351	0.463	0.526	0.472	0.493	0.495	0.766	0.589	0.829	0.512	0.703
CAL-12T	1.28	1.23	1.27	1.19	0.37	0.325	0.54	0.294	0.303	0.338	0.37	0.228	0.218	1.08	1.12	1.16	0.867	1.31
COR-L23	1.05	1.08	1.15	1.08	0.57	0.476	0.559	0.519	0.183	0.192	0.162	0.153	0.171	0.198	0.205	0.197	0.182	0.204
COR-L 105	0.925	0.749	0.938	0.486	0.338	0.472	0.328	0.25	0.362	0.348	0.352	0.336	0.344	0.935	1.13	1.26	0.761	1.21
Calu-6	0.84	0.809	0.763	0.602	–	–	–	–	–	–	–	–	–	–	–	–	–	–
ChaGo-K-1	0.987	1.05	1.13	0.72	0.514	0.617	0.592	0.584	0.206	0.22	0.219	0.2	0.206	0.259	0.262	0.271	0.262	0.258
EBC-1	0.408	0.386	0.382	0.165	–	–	–	–	–	–	–	–	–	–	–	–	–	–
EKVX	0.826	0.926	1.04	0.881	0.571	0.52	0.474	0.526	0.337	0.296	0.344	0.362	0.202	0.368	0.373	0.317	0.265	0.348
EMC-BAC-2	1.16	1.14	1.14	1.17	0.345	0.305	0.327	0.371	0.285	0.288	0.274	0.287	0.272	0.415	0.45	0.438	0.414	0.413
EPLC-272H	1.08	1.06	1.22	1.02	0.384	0.411	0.453	0.37	0.185	0.111	0.211	0.277	0.157	0.24	0.382	0.383	0.424	0.269
H3255	0.517	0.59	0.669	0.544	0.401	0.5	0.448	0.342	0.607	0.595	0.42	0.442	0.594	0.535	0.577	0.583	0.464	0.507
HARA	1.13	1.08	1.24	1.15	0.275	0.271	0.255	0.266	0.212	0.108	0.0865	0.111	0.0791	0.217	0.241	0.278	0.254	0.253
HCC-15	0.725	0.749	0.765	0.487	0.632	0.706	0.654	0.44	0.344	0.332	0.377	0.37	0.293	0.208	0.231	0.244	0.228	0.212
HCC-44	0.908	0.968	1.02	0.945	–	–	–	–	0.945	0.895	0.88	0.957	0.829	0.669	0.661	0.763	0.741	0.831
HCC-78	0.844	0.779	0.717	0.602	0.486	0.557	0.362	0.421	0.327	0.335	0.271	0.317	0.227	0.87	0.857	0.926	0.862	0.953
HCC-366	1.04	1.12	1.21	1.05	0.697	0.599	0.504	0.571	0.108	0.0944	0.0731	0.12	0.063	0.173	0.202	0.204	0.209	0.275
HCC-827	1.01	1.01	0.988	1.01	0.398	0.237	0.258	0.379	0.379	0.405	0.422	0.342	0.287	0.251	0.254	0.245	0.245	0.238
HOP-62	0.856	1.07	1.15	1.02	0.748	0.62	0.711	0.65	0.374	0.382	0.311	0.363	0.332	0.335	0.386	0.363	0.335	0.379

Cell Line	relative viability ([1]; first compound 0.2 µM)	relative viability ([1]; first compound 0.6325 µM)	relative viability ([1]; first compound 2 µM)	relative viability ([1]; first compound 6.325 µM)	relative viability ([2]; first compound 0.2 µM)	relative viability ([2]; first compound 0.6325 µM)	relative viability ([2]; first compound 2 µM)	relative viability ([2]; first compound 6.325 µM)	relative viability (AZD6482 + Tozasertib; first compound 0.08 µM)	relative viability (AZD6482 + Tozasertib; first compound 0.253 µM)	relative viability (AZD6482 + Tozasertib; first compound 0.8 µM)	relative viability (AZD6482 + Tozasertib; first compound 2.53 µM)	relative viability (AZD6482 + Tozasertib; first compound 8 µM)	relative viability (AZD6482 + Pemetrexed; first compound 0.08 µM)	relative viability (AZD6482 + Pemetrexed; first compound 0.253 µM)	relative viability (AZD6482 + Pemetrexed; first compound 0.8 µM)	relative viability (AZD6482 + Pemetrexed; first compound 2.53 µM)	relative viability (AZD6482 + Pemetrexed; first compound 8 µM)
IA-LM	0.761	0.689	1.01	0.64	–	–	–	–	–	–	–	–	–	–	–	–	–	–
LC-2-ad	0.363	0.447	0.444	0.397	0.493	0.618	0.804	0.65	0.392	0.428	0.452	0.5	0.379	0.279	0.293	0.274	0.302	0.292
LCLC-97TM1	0.37	–	0.34	0.444	0.857	0.701	0.877	0.915	0.206	0.208	0.168	0.158	0.128	0.15	0.166	0.164	–	0.162
LCLC-103H	–	–	–	–	0.394	0.344	0.532	0.479	0.486	0.456	0.472	0.412	0.303	0.491	0.506	0.49	0.462	0.456
LK-2	0.91	0.843	1.16	0.637	0.35	0.341	0.261	0.324	0.142	0.162	0.15	0.182	0.168	0.276	0.276	0.263	0.193	0.176
LOU-NH91	0.717	0.688	0.578	0.742	0.525	0.686	0.439	0.59	0.551	0.66	0.605	0.546	0.496	0.376	0.373	0.444	0.521	0.493
LU99A	0.899	0.689	0.625	0.815	0.588	0.552	0.47	0.433	0.281	0.294	0.253	0.263	0.247	0.187	0.2	0.158	0.17	0.172
LXF-289	0.894	0.938	1.01	0.905	0.263	0.212	0.252	0.213	0.178	0.135	0.171	0.207	0.122	0.678	0.94	1.08	0.849	0.922
NCI-H23	0.757	0.882	1.02	0.722	0.786	0.628	0.859	0.876	0.489	0.302	0.398	0.358	0.228	0.651	0.484	0.715	0.375	0.43
NCI-H358	–	–	–	–	0.163	0.205	0.146	0.171	0.0814	0.107	0.104	0.0733	0.0946	0.16	0.174	0.164	0.154	0.145
NCI-H522	–	–	–	–	0.963	1.15	1.02	0.92	0.541	0.439	0.623	0.523	0.543	0.932	0.933	1.11	0.87	0.923
NCI-H650	–	–	–	–	0.48	0.472	0.441	0.38	0.722	–	0.751	0.588	0.443	1.01	0.859	0.874	0.568	0.441
NCI-H661	–	–	–	–	0.957	0.955	0.966	0.83	0.365	0.362	0.407	0.372	0.383	0.94	1.01	0.974	0.74	0.803
NCI-H727	0.495	0.517	0.381	0.225	0.302	0.461	0.452	0.322	0.587	0.645	0.571	0.457	0.449	–	–	–	–	–
NCI-H1299	1.07	1.04	1.09	1.02	–	–	–	–	–	–	–	–	–	–	–	–	–	–
NCI-H1563	–	–	–	–	0.469	0.467	0.441	0.421	–	–	–	–	–	0.666	0.676	0.642	0.605	0.698
NCI-H1623	–	–	–	–	0.517	0.604	0.507	0.524	0.384	0.382	0.397	0.419	0.371	–	–	–	–	–
NCI-H1648	–	–	–	–	–	–	–	–	0.538	0.463	0.588	0.351	0.409	0.892	0.625	0.816	–	0.671
NCI-H1703	1.25	0.92	1.11	0.41	–	–	–	–	–	–	–	–	–	–	–	–	–	–
NCI-H1792	0.665	0.639	0.66	0.629	0.89	0.781	0.824	0.816	–	–	–	–	–	0.63	0.632	0.641	0.303	0.417
NCI-H2342	–	–	–	–	0.34	0.295	0.311	0.312	0.465	0.432	0.488	0.372	0.359	0.745	0.681	0.726	0.609	0.567
SW 900	–	–	–	–	0.411	0.578	0.654	0.498	0.559	0.506	0.561	–	0.567	0.479	0.476	0.501	0.358	0.384
